Earlier results as cited in patent US20020054924A1, “Novel compositions derived from cranberry and grapefruit and therapeutic uses therefor” (priority 2000, published 2002).

Test system: cholesterol
Conditions: chickens

Substance: tocotrienol [Extract T3]
- hypocholesterolemic effect compared with Lovastatin: twice as effective as Lovastatin™
